# Measured values from the supplement of paper PMC10307832.
# Key:
# Assay in all cases: relative viability (nuclei count vs DMSO), 5 days (fraction); higher = more cells survive
# NCI-H1437 = tested on: NCI-H1437
# Outline: (§1)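 Cells from lung cancer lines were seeded into 1536-well plates and, one day later, dosed by pin tool. Treatments were either a single drug or a fixed dose of an anchor drug with five library-drug doses (not always all listed) in √10 steps. After 5 days, nuclei were stained in a one-step fixation (final 0.05% Triton X-100, 1% formaldehyde, 1 ug/ml Hoechst) and counted on 4× images, and relative viability is the treated-to-vehicle nuclei ratio, as the median of duplicate plates.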
# NCI-H1792 = tested on: NCI-H1792
# Outline: as §1
# NCI-H2170 = tested on: NCI-H2170
# Outline: as §1
# NCI-H1734 = tested on: NCI-H1734
# Outline: as §1
# BEN = tested on: BEN
# Outline: as §1
# NCI-H661 = tested on: NCI-H661
# Outline: as §1
# EKVX = tested on: EKVX
# Outline: as §1
# NCI-H1993 = tested on: NCI-H1993
# Outline: as §1
# NCI-H2087 = tested on: NCI-H2087
# Outline: as §1
# SK-LU-1 = tested on: SK-LU-1
# Outline: as §1
# NCI-H1355 = tested on: NCI-H1355
# Outline: as §1
# LOU-NH91 = tested on: LOU-NH91
# Outline: as §1
# HCC-366 = tested on: HCC-366
# Outline: as §1
# SK-MES-1 = tested on: SK-MES-1
# Outline: as §1
# HCC-827 = tested on: HCC-827
# Outline: as §1
# NCI-H647 = tested on: NCI-H647
# Outline: as §1
# HARA = tested on: HARA
# Outline: as §1
# NCI-H2405 = tested on: NCI-H2405
# Outline: as §1
# NCI-H2009 = tested on: NCI-H2009
# Outline: as §1
# NCI-H1395 = tested on: NCI-H1395
# Outline: as §1
compound,measurement,setting,value
Nc1ccn([C@@H]2O[C@H](CO)[C@@H](O)[C@@H]2O)c(=O)n1 [Cytarabine] + CS(=O)(=O)N1CCN(Cc2cc3nc(-c4cccc5[nH]ncc45)nc(N4CCOCC4)c3s2)CC1 [Pictilisib] (partner 1 µM),relative viability,NCI-H1437; first compound 0.005 µM,0.381
same,relative viability,NCI-H1437; first compound 0.01581 µM,0.245
same,relative viability,NCI-H1437; first compound 0.05 µM,0.252
same,relative viability,NCI-H1437; first compound 0.1581 µM,0.112
same,relative viability,NCI-H1437; first compound 0.5 µM,0.11
same,relative viability,NCI-H1792; first compound 0.005 µM,0.314
same,relative viability,NCI-H1792; first compound 0.01581 µM,0.207
same,relative viability,NCI-H1792; first compound 0.05 µM,0.216
same,relative viability,NCI-H1792; first compound 0.1581 µM,0.174
same,relative viability,NCI-H1792; first compound 0.5 µM,0.188
same,relative viability,NCI-H2170; first compound 0.01581 µM,0.257
same,relative viability,NCI-H2170; first compound 0.05 µM,0.235
same,relative viability,NCI-H2170; first compound 0.1581 µM,0.191
same,relative viability,NCI-H2170; first compound 0.5 µM,0.192
same,relative viability,NCI-H1734; first compound 0.005 µM,0.365
same,relative viability,NCI-H1734; first compound 0.01581 µM,0.217
same,relative viability,NCI-H1734; first compound 0.05 µM,0.213
same,relative viability,NCI-H1734; first compound 0.1581 µM,0.147
same,relative viability,NCI-H1734; first compound 0.5 µM,0.118
same,relative viability,BEN; first compound 0.005 µM,0.571
same,relative viability,BEN; first compound 0.01581 µM,0.504
same,relative viability,BEN; first compound 0.05 µM,0.413
same,relative viability,BEN; first compound 0.1581 µM,0.279
same,relative viability,BEN; first compound 0.5 µM,0.195
same,relative viability,NCI-H661; first compound 0.005 µM,0.411
same,relative viability,NCI-H661; first compound 0.01581 µM,0.323
same,relative viability,NCI-H661; first compound 0.05 µM,0.217
same,relative viability,NCI-H661; first compound 0.1581 µM,0.284
same,relative viability,NCI-H661; first compound 0.5 µM,0.222
same,relative viability,EKVX; first compound 0.005 µM,0.486
same,relative viability,EKVX; first compound 0.01581 µM,0.362
same,relative viability,EKVX; first compound 0.05 µM,0.406
same,relative viability,EKVX; first compound 0.1581 µM,0.2
same,relative viability,EKVX; first compound 0.5 µM,0.163
same,relative viability,NCI-H1993; first compound 0.005 µM,0.84
same,relative viability,NCI-H1993; first compound 0.01581 µM,0.815
same,relative viability,NCI-H1993; first compound 0.05 µM,0.765
same,relative viability,NCI-H1993; first compound 0.1581 µM,0.712
same,relative viability,NCI-H1993; first compound 0.5 µM,0.525
same,relative viability,NCI-H2087; first compound 0.005 µM,0.804
same,relative viability,NCI-H2087; first compound 0.01581 µM,0.751
same,relative viability,NCI-H2087; first compound 0.05 µM,0.805
same,relative viability,NCI-H2087; first compound 0.1581 µM,0.461
same,relative viability,NCI-H2087; first compound 0.5 µM,0.355
same,relative viability,SK-LU-1; first compound 0.005 µM,0.519
same,relative viability,SK-LU-1; first compound 0.01581 µM,0.515
same,relative viability,SK-LU-1; first compound 0.05 µM,0.333
same,relative viability,SK-LU-1; first compound 0.1581 µM,0.216
same,relative viability,SK-LU-1; first compound 0.5 µM,0.216
same,relative viability,NCI-H1355; first compound 0.005 µM,0.398
same,relative viability,NCI-H1355; first compound 0.01581 µM,0.392
same,relative viability,NCI-H1355; first compound 0.05 µM,0.205
same,relative viability,NCI-H1355; first compound 0.1581 µM,0.302
same,relative viability,NCI-H1355; first compound 0.5 µM,0.196
same,relative viability,LOU-NH91; first compound 0.005 µM,0.525
same,relative viability,LOU-NH91; first compound 0.01581 µM,0.56
same,relative viability,LOU-NH91; first compound 0.05 µM,0.489
same,relative viability,LOU-NH91; first compound 0.1581 µM,0.385
same,relative viability,LOU-NH91; first compound 0.5 µM,0.369
same,relative viability,HCC-366; first compound 0.005 µM,0.134
same,relative viability,HCC-366; first compound 0.01581 µM,0.129
same,relative viability,HCC-366; first compound 0.05 µM,0.0867
same,relative viability,HCC-366; first compound 0.1581 µM,0.0754
same,relative viability,HCC-366; first compound 0.5 µM,0.0688
same,relative viability,SK-MES-1; first compound 0.005 µM,0.333
same,relative viability,SK-MES-1; first compound 0.01581 µM,0.305
same,relative viability,SK-MES-1; first compound 0.05 µM,0.227
same,relative viability,SK-MES-1; first compound 0.1581 µM,0.194
same,relative viability,SK-MES-1; first compound 0.5 µM,0.205
same,relative viability,HCC-827; first compound 0.005 µM,1.05
same,relative viability,HCC-827; first compound 0.01581 µM,0.876
same,relative viability,HCC-827; first compound 0.05 µM,0.683
same,relative viability,HCC-827; first compound 0.1581 µM,0.474
same,relative viability,HCC-827; first compound 0.5 µM,0.408
same,relative viability,NCI-H647; first compound 0.005 µM,0.39
same,relative viability,NCI-H647; first compound 0.01581 µM,0.212
same,relative viability,NCI-H647; first compound 0.05 µM,0.159
same,relative viability,NCI-H647; first compound 0.1581 µM,0.0808
same,relative viability,NCI-H647; first compound 0.5 µM,0.0843
same,relative viability,HARA; first compound 0.005 µM,0.316
same,relative viability,HARA; first compound 0.01581 µM,0.368
same,relative viability,HARA; first compound 0.05 µM,0.163
same,relative viability,HARA; first compound 0.1581 µM,0.106
same,relative viability,HARA; first compound 0.5 µM,0.117
same,relative viability,NCI-H2405; first compound 0.005 µM,0.398
same,relative viability,NCI-H2405; first compound 0.01581 µM,0.334
same,relative viability,NCI-H2405; first compound 0.05 µM,0.319
same,relative viability,NCI-H2405; first compound 0.1581 µM,0.301
same,relative viability,NCI-H2405; first compound 0.5 µM,0.229
same,relative viability,NCI-H2009; first compound 0.005 µM,0.907
same,relative viability,NCI-H2009; first compound 0.01581 µM,0.678
same,relative viability,NCI-H2009; first compound 0.05 µM,0.81
same,relative viability,NCI-H2009; first compound 0.1581 µM,0.487
same,relative viability,NCI-H2009; first compound 0.5 µM,0.224
same,relative viability,NCI-H1395; first compound 0.005 µM,0.616
same,relative viability,NCI-H1395; first compound 0.01581 µM,0.564
same,relative viability,NCI-H1395; first compound 0.05 µM,0.391
same,relative viability,NCI-H1395; first compound 0.1581 µM,0.365
same,relative viability,NCI-H1395; first compound 0.5 µM,0.316
